Results from patent US11197865B2, “Applications for promethazine in preparing anti-liver cancer and/or colon cancer and/or lung cancer products” (SHANGHAI JIAO TONG UNIVERSITY, priority 2015, dated 2021).

How the values were obtained:
Format in all cases: cell-based
[1] = tested on: HUH-7 liver cancer cells; assay: CellTiter-Glo luminescent cell viability assay, HUH-7 liver cancer cells; conditions: Homo sapiens, 72 hours
From the text: (§1) In example 1, CELLTITER-GLO was used to test promethazine against liver cancer and/or colon cancer. n) HUH-7 cells and LoVo cells were handled as described above, and HUH-7 96-well cell culture plates and LoVo 96-well cell culture plates were obtained, respectively. The complete medium for HUH-7 cells was DMEM (a live product), Cat #11995081, with a cells/well density of 6000. 2. […] The final concentrations (μM) of the analyte drug in wells 2-10 in FIG. 1 are, in order: 100, 31.64557, 10.01442, 3.16912, 1.002886, 0.317369, 0.100433, 0.031783, 0.010058; B. CELLTITER-GLO Luminescent Cell Viability Assay System a) Before testing, the HUH-7 96-well drug screening plate and the LoVo 96-well drug screening plate described in 3 above were stabilized to room temperature for 20-30 minutes. c) 100 μl of CellTiter-Glo reagent (prepared as described in 1 above) was added to all drug screening plates and mixed evenly. d) It was thoroughly oscillated in a 96-well microplate oscillator for 2 minutes to allow the cells to undergo full lysis. e) It was stored away from light at room temperature for 15 minutes before carrying out luminescent signal detection to ensure signal stability. f) An EnSpire multi-function plate reader was used at 570 nm to read the luminescent signals. g) Data was processed and analyzed.

[2] = tested on: LoVo colon cancer cells; assay: CellTiter-Glo luminescent cell viability assay, LoVo colon cancer cells; conditions: Homo sapiens, 72 hours
From the text: as §1, with “for LoVo” for “for HUH-7”, “of 8000.” for “of 6000.”

[3] = tested on: SKOV-3 human ovarian cancer cells; assay: CellTiter-Glo luminescent cell viability assay, SKOV-3 ovarian cancer cells; conditions: SK-OV-3, SKOV-3 cells, 72 hours
[4] = tested on: NCI-H661 large-cell lung cancer cells; assay: CellTiter-Glo luminescent cell viability assay, NCI-H661 large-cell lung cancer cells; conditions: Homo sapiens, 72 hours
[5] = tested on: NCI-H2141 lung cancer cells; assay: CellTiter-Glo luminescent cell viability assay, NCI-H2141 lung cancer cells; conditions: 72 hours

EC50 ([1]; FIG. 2, liver cancer (HUH-7)): 42 µM
IC50 ([1]; HUH-7 cells): 31.4 µM
IC50 [2]: 33.5 µM
IC50 [3]: ≥ 100 µM
IC50 [4]: ≥ 100 µM
EC50 ([5]; FIG. 4, lung cancer (NCI-H2141)): 33.9 µM
IC50 ([5]; NCI-H2141 cells): 34.6 µM
Structure (SMILES): CC(CN1c2ccccc2Sc2ccccc21)N(C)C (stereo not shown) [promethazine]
